“And” between values parts separate entries of the source, which are not always exact repeats. Identical values can stand only once. Like-named read-outs stand apart in the source and are kept apart here.
Experiments:
A549 NSCLC Cells = assay: In vitro cytotoxicity, resazurin cell viability assay; format: cell-based; conditions: Homo sapiens
Method: Cytotoxicity was determined using a resazurin cell viability assay. A549 cells were cultured in RPMI1640, supplemented with 10% FBS, 100 IU/mL penicillin, 100 μg/mL streptomycin, and 2 mM of L-glutamine. The cells were incubated at 37° C., 5% CO2 atmosphere. Exponentially grown cells were detached from the T-flask by adding a Trypsin-EDTA solution.
Each drug was dissolved at 10 mM as a stock solution using dimethyl sulfoxide (DMSO). […] The stock solution was diluted with cell culture media and the final concentration of DMSO was less than 0.1%. […] The fraction of viable cells were determined using a Cell titer Blue® dye assay (Promega, USA) by monitoring using fluorescence at 590 nm (emission). The inhibitory drug concentration (IC50) was determined by the median-effect equation using compusyn software (Combosyn Inc., US). The determination of IC50 was performed in three independent experiments.
The half maximal inhibitory drug concentration (IC50) was determined by the median-effect equation:
[formula] using CompuSyn software (Version 1.0, ComboSyn Inc., US). In the median-effect equation, fa is the fraction of affected cells; D is drug concentration; and m is the Hill slope or kinetic order.

[1] = format: physicochemical
Method: Acetone was evaporated from the aqueous micelle solution under reduced pressure using a rotatory evaporator at 60° C. The thin film of “polymer plus drug mixture” was reconstituted with 1 mL of 0.9% saline at 60° C.
Samples for RP-HPLC were prepared by adding acetonitrile (ACN) into each micelle to break it apart and quantify drugs dissolved in ACN.

[2] = tested on: ES-2 ovarian monolayer cells; assay: cells; format: cell-based; conditions: PEG5k-b-PCL10k micelles
[3] = tested on: ES-2 ovarian multicellular spheroids; assay: cells; format: cell-based; conditions: PEG5k-b-PCL10k micelles, bioluminescence readout; read-out: IC50 values (nM), Spheroids (BLI)
Method: Surviving cells after treatment were quantified by scanning bioluminescence of luc-ES-2 cells (IVIS optical imaging system).
The images of FIG. 7 were collected using an inverted light microscope on spheroids treated with PEG5k-b-PCL10k micelles representing 1000 nM of total drug concentration. In advance, to obtain luciferase-expressing ES-2 cells, ES-2 cells were transfected with pGL4 with neomycin resistance using Lipofectamine 2,000.
Bioluminescence of surviving cells was quantified and IC50 value was calculated by using Compusyn.

[4] = PEG-b-PCL micelle stability tests (drug quantification)
Method: Supernatant was collected and drug contents were analyzed by RP-HPLC analysis.

[5] = Stability of the poloxamer micelle solution, 24 hours at ambient temperature; conditions: Pluronic F68 micelles, gossypol + paclitaxel
Method: The drugs remaining in the solution were quantified by RP-HPLC described above. The micelle solution was centrifuged at 13,000 rpm for 5 minutes and was then filtered with a 0.45 μm nylon filter to remove any drug aggregates in the micelle solution. The concentration of each drug was compared with that of each drug at initial preparation to estimate the stability of micelle solution.

[6] = Celltiter Blue readout, read-out: IC50 values (nM), Monolayer (Celltiter Blue)
[7] = bioluminescence readout, read-out: IC50 values (nM), Monolayer (BLI)
[8] = 1-in-1 PEG5k-b-PCL10k micelles, 200 mg polymer
[9] = 1-in-1 micelles, 10× decreased drug loading
[10] = 2-in-1 PTX + CYP micelles, 200 mg polymer
[11] = 2-in-1 PTX + CYP micelles, 10× decreased drug loading
[12] = 2-in-1 PTX + GSP micelles, 200 mg polymer
[13] = 2-in-1 PTX + GSP micelles, 10× decreased drug loading
[14] = 3-in-1 PTX + CYP + GSP micelles, 200 mg polymer
[15] = 3-in-1 PTX + CYP + GSP micelles, 10× decreased drug loading
[16] = 2-in-1 CYP + GSP micelles, 200 mg polymer
[17] = 2-in-1 CYP + GSP micelles, 10× decreased drug loading

## CC(=O)O[C@H]1C(=O)[C@@]2(C)[C@H]([C@H](OC(=O)c3ccccc3)[C@]3(O)C[C@H](OC(=O)[C@H](O)[C@@H](NC(=O)c4ccccc4)c4ccccc4)C(C)=C1C3(C)C)[C@]1(OC(C)=O)CO[C@@H]1C[C@@H]2O [Paclitaxel, paclitaxel]
A549 NSCLC Cells; A549, free drugs in DMSO stock, 72 hours, n = 3, mean ± SD, two drug combinations molar ratio 1:1, three drug 5:5:1, read-out: IC50
  IC50: 616 ± 418 nM
[1]; polymer 10 mg/ml, PTX + CYP + GSP micelles
  drug loaded: 0.38 ± 0.12 mg/mL
[1]; polymer 10 mg/ml, PTX + CYP micelles
  drug loaded: 0.01 ± 0.001 mg/mL
[1]; polymer 10 mg/ml, PTX + GSP micelles
  drug loaded: 0.87 ± 0.09 mg/mL
[1]; polymer 10 mg/ml, single drug micelles
  drug loaded: 0.014 ± 0.002 mg/mL
[1]; polymer 20 mg/ml, PTX + CYP + GSP micelles
  drug loaded: 0.63 ± 0.14 mg/mL
[1]; polymer 200 mg/ml, PTX + CYP + GSP micelles, listed as PTX
  drug loaded: 6.4 mg/mL and 6.41 ± 0.63 mg/mL
[1]; polymer 200 mg/ml, PTX + CYP micelles
  drug loaded: 0.01 ± 0.01 mg/mL
[1]; polymer 200 mg/ml, PTX + GSP micelles
  drug loaded: 3.49 ± 0.39 mg/mL
[2]; [6]
  IC50: 13 nM
[2]; [7]
  IC50: 12 nM
[3]
  IC50: 8.7 nM
[4]; [8]
  % Remaining Day 0: 100 ± 9.3%
  % Remaining Day 1: 34.3 ± 3.1%
[4]; [9]
  % Remaining Day 0: 100 ± 8.3%
  % Remaining Day 1: 89.7 ± 5.2%
[4]; [10]
  % Remaining Day 0: 100 ± 12.6%
  % Remaining Day 1: 27.0 ± 2.9%
[4]; [11]
  % Remaining Day 0: 100 ± 6.2%
  % Remaining Day 1: 90.7 ± 5.1%
[4]; [12]
  % Remaining Day 0: 100 ± 9.4%
  % Remaining Day 1: 66.8 ± 4.1%
[4]; [13]
  % Remaining Day 0: 100 ± 6.3%
  % Remaining Day 1: 93.2 ± 4.9%
[4]; [14]
  % Remaining Day 0: 100 ± 4.7%
  % Remaining Day 1: 99.3 ± 2.2%
[4]; [15]
  % Remaining Day 0: 100 ± 3.6%
  % Remaining Day 1: 87.9 ± 2.7%
[5]
  % w/w drug(s) @ 24 hr: 63.4 ± 35.4 % w/w
  Initial drug level in water: 6.53 ± 0.31 mg/mL
[5]; ambient temperature
  Drug level @ 24 hrs in water: 4110 ± 2260 µg/mL

## Cc1cc2c(C(C)C)c(O)c(O)c(C=O)c2c(O)c1-c1c(C)cc2c(C(C)C)c(O)c(O)c(C=O)c2c1O [Gossypol, gossypol]
A549 NSCLC Cells; A549, 72 h
  IC50: 6500 ± 3400 nM
[2]; [6]
  IC50: > 100000 nM
[2]; [7]
  IC50: > 100000 nM
[3]
  IC50: 4820 nM
2-in-1 poloxamer 188 micelles, gossypol + 17-AAG
  drug level in water: 5180 ± 470 µg/mL
2-in-1 poloxamer 188 micelles, gossypol + paclitaxel
  drug level in water: 4650 ± 620 µg/mL
2-in-1 poloxamer 188 micelles, gossypol + paclitaxel, listed as gossypol
  drug level in water: 4650 µg/mL
singly-loaded poloxamer 188 micelles
  drug level in water: 5410 ± 140 µg/mL
[4]; [8]
  % Remaining Day 0: 100 ± 4.7%
  % Remaining Day 1: 89.4 ± 3.3%
[4]; [9]
  % Remaining Day 0: 100 ± 5.6%
  % Remaining Day 1: 98.3 ± 3.6%
[4]; [16]
  % Remaining Day 0: 100 ± 4.9%
  % Remaining Day 1: 89.8 ± 3.7%
[4]; [17]
  % Remaining Day 0: 100 ± 4.1%
  % Remaining Day 1: 95.4 ± 3.6%
[4]; [12]
  % Remaining Day 0: 100 ± 4.4%
  % Remaining Day 1: 97.0 ± 2.5%
[4]; [13]
  % Remaining Day 0: 100 ± 7.1%
  % Remaining Day 1: 89.5 ± 3.8%
[4]; [14]
  % Remaining Day 0: 100 ± 3.8%
  % Remaining Day 1: 82.3 ± 2.6%
[4]; [15]
  % Remaining Day 0: 100 ± 3.8%
  % Remaining Day 1: 81.0 ± 3.0%
